Test results reported in US10617677B2, “Nuclear transport modulators and uses thereof” (Biogen MA Inc., priority 2012, dated 2020).
“Also recorded” adds a separate entry of the source.

Experiments:
NF-κB = NF-κB transcriptional activity in TNFα-induced HeLa cells; format: cell-based; conditions: Homo sapiens, 1 h pre-treatment, then 4 h of 20 ng/mL TNFα, average of three experiments, read-out: IC50, inhibition of NF-κB transcriptional activity
Protocol: The compounds were tested on HeLa (adenocarcinoma) cells to quantify their ability to inhibit NF-κB transcriptional activity. NF-κB activity was induced in HeLa cells by TNFα, and then the compounds were added to inhibit the induced NF-κB activity. Half maximal inhibitory concentrations (IC50) of several compounds, namely Compound 1, Compound 2 and Compound 12, were determined by dose response studies.
HeLa cells were plated in a 12-well plate (200,000 cells/well) and cultured in Eagle's Minimal Essential medium (EMEM) from Lonza supplemented with 10% heat-inactivated fetal bovine serum (Invitrogen) and 50 μg/mL penicillin/streptomycin (Invitrogen), and were left overnight to attach. Cells were pre-treated with serial diluted (started at 30 µM; 1:3 dilution) compounds for 1 h and then exposed to 20 ng/mL TNFα (Peprotech) for 4 h in serum free media. After the treatment, the cells were washed with PBS (Invitrogen), and lysed with RIPA buffer (Themo Scientific). The transcription activity of NF-κB in the cells was measured by Chemiluminescent Transcription Factor Assay kit (Thermo Scientific Catalog #89859), according to the manufacturer's instruction. Briefly, 1.5 mg/mL of RIPA lysed whole cell extract from each treatment were incubated in a 96-well plate bound with NF-κB biotinylated-consensus sequence. The active NF-κB transcription factor bound to the consensus sequence was incubated with NF-κB p65 primary antibody and then with a secondary HRP-conjugated antibody. A chemiluminescent substrate was added to the wells and the resulting signal was detected using a luminometer. Three separate experiments were analyzed for each concentration of the IC50 curves. XLFit model 205 was used to calculate IC50 curves.
Inhibition of NF-κB transcriptional activity was measured by serial dilutions of Compound 1, Compound 2 and Compound 12 after 1 h of compound pre-treatment followed by 4 h of 20 ng/mL TNFα exposure. Three independent experiments were scored for each concentration, with the average being presented here.

skin wounds = test: Longitudinal full thickness skin incision wound model in C57BL mice; format: in vivo
Source text: The effects of Compound 1 on skin wound healing were studied in a mouse longitudinal full thickness skin incision wound model. Upon arrival, animals were identified by ear tags, weighed and left to acclimate for several days before initiation of the experiment. On the day of wounding, mice were weighed and divided into 6 experimental groups with 6 animals per group, in accordance to weight differences stratified randomization. Prior to the surgical procedure, mice were anesthetized with isoflurane and the back of the animals was trimmed. Full thickness longitudinal incisions of 20 mm were performed using a standard scalpel blade on the backs of the animals (parallel to the backbone). […] At this stage, the widest area of the wound was measured to establish a baseline wound width. […] At the end of the experiment, 8 days post wounding, mice were sacrificed, wound widths were measured and biopsies of the wound area were collected and subjected to analysis. […]
As a part of a daily morphological assessment, photo-documentation was performed using a digital camera FinePix S700. […] When evaluated on the same day as treatment groups, control group wounds appeared larger in size and were covered with thick cracked scabs that exposed a non-healed wound area (observed as reddish and pink areas) both at the edges and in the middle of the wounds. […]

[1] = test system: collagen-induced arthritis; test: Collagen-induced arthritis (CIA) in Lewis rats; format: in vivo; conditions: 4 mg/kg PO QoD from onset to day 28
Protocol: Forty (40) female Lewis rats (BK), aged 6 to 8 weeks with a pre-treatment body weight range of 180 to 200 g were divided randomly into four (4) groups (Groups A-D) of ten (10) rats each. The rats in Groups B to D were immunized intradermally with bovine CII in IFA at three sites near the base of the tail and over the back with 500 μL of the emulsion on day 0 (200 μL, 200 μL, 100 μL for each site). On day 7, the rats in Groups B-D were given booster injections with the same amount of the emulsion intradermally near the former injection sites. […] Rats were weighed daily and a drug holiday was given to an animal when a weight loss of greater than 13%. CIA development was evaluated via macroscopic scoring and measurements of paw swelling. […] Foot volume was measured by plethysmometry on the same day of the arthritic measurement throughout the study period. The cubage of each hind paw and swelling rate were measured and using the following equation: Swelling Rate=(CN−C0)/C0×100%. […] The clinical scores were summed for each animal, and the total average of all animals in each group was expressed as the mean arthritic score. […] Prepared sections of hind paws were subjected to hematoxylin and eosin (H&E) staining.

Row | Structure (SMILES) | IC50 (NF-κB) [µM] | wound healing, morphological assessment (skin wounds; 4 or 7.5 mg/kg PO every other day, or 1 or 2.5 μM topical daily, Day 5 post-wounding) | incidence of tampering with wounds compared to vehicle treated mice (skin wounds; Compound 1 in PVP/Pluronic F-68 or Compound 1 in water) | Clinical Scores, Joint Swelling and histological examination [1] | histopathology of hind paws (H&E) [1]
1 | CC(C)(C)C(=O)NNC(=O)/C=C\n1cnc(-c2cc(C(F)(F)F)cc(C(F)(F)F)c2)n1 [Compound 1, (Z)-3-(3-(3,5-bis(trifluoromethyl)phenyl)-1H-1,2,4-triazol-1-yl)-N′-pivaloylacrylohydrazide] | 1.59 | positive effect; also recorded: better wound healing | reduced the incidence of tampering with wounds; also recorded: prevented tampering with wounds | – | –
2 | O=C(/C=C\n1cnc(-c2cc(C(F)(F)F)cc(C(F)(F)F)c2)n1)NNC(=O)CN1CCOCC1 [Compound 2, (Z)-3-(3-(3,5-bis(trifluoromethyl)phenyl)-1H-1,2,4-triazol-1-yl)-N′-(2-morpholinoacetyl)acrylohydrazide] | 1.22 | – | – | therapeutic efficacy | relatively intact cartilage was found on the joint surface and pannus formation was minimal
